Assay results reported in patent US12459951B2, “Compounds that interact with RAS superfamily proteins for treatment of cancers, inflammatory diseases, rasopathies, and fibrotic disease” (SHY Therapeutics, LLC, priority 2022, dated 2025).

Experiments:
IL6 = test: IL-6 Quantification Assay (ELISA), LPS-stimulated RAW 264.7; assay type: cell-based; parameters: inhibition: dose or concentration left out as unconfirmed; settings: Mus musculus, RAW264.7; read-out: IL-6: % inh.
TNF-alpha = TNF-alpha Quantification Assay (ELISA), LPS-stimulated RAW 264.7; assay type: cell-based; settings: Mus musculus, RAW264.7; at 10 μM; read-out: TNFα: % inh.
[1] = system: Smad2/Smad3 phosphorylation; test: Phospho-Smad2/3 Inhibition Assay (western blot), Panc-1; assay type: cell-based, human; settings: at 10 μM, Panc-1 pancreatic cancer cell line; starred symbols = activation
How it was run: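 Panc-1 cells (KRas G12D), starved overnight in 0.5% FBS, treated 3 h at 37° C with compound at 10 μM final (0.3% DMSO) or serial dilutions for IC50, then stimulated with 10 ng/ml TGF-b1 for 1 h. Phospho-Smad2 (Ser465/467) and phospho-Smad3 (Ser423/425) detected by western blot.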

[2] = system: MiaPaca-2 (expressing KRAS G12C mutant); test: Proliferation Assay (Cell Viability Assay); assay type: cell-based; settings: Homo sapiens, MIA PaCa-2; read-out: Proliferation in MiaPaca-2: IC50
How it was run: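 MiaPaca-2 cells (KRAS G12C) were grown in DMEM-high glucose with 10% FBS, seeded at 2000–5000 cells/well and cultured overnight. Compounds were added at 10 μM final, or as serial dilutions for IC50, in 0.3% DMSO/10% FBS for 2–4 days at 37 °C, 5% CO2. Viability was measured with CellTiter 96 Aqueous One and % inhibition calculated.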

Row | Structure (SMILES) | IC50 [2] [nM] | inhibition (IL6) [%] | inhibition at 10 µM (TNF-alpha) [%] | % inh of Smad2/3 phosphorylation in Panc-1 [1]
1 | Cc1c(-c2ccn(C(C)C)n2)cn2nc(-c3nccn3C)nc(Nc3ccn(C(C)C)n3)c12 [Compound 72, N,6-bis(1-Isopropyl-1H-pyrazol-3-yl)-5-methyl-2-(1-methyl-1H-imidazol-2-yl)pyrrolo[2,1-f][1,2,4]triazin-4-amine] | > 1000 | 50 to 74 | 1 to 24 | 0 (0 = 0% inhibition)
2 | COc1ccc(-c2cn3nc(-c4nccn4C)nc(Nc4cc(OC)ncn4)c3c2C)cn1 [Compound 66, 6-(6-Methoxypyridin-3-yl)-N-(6-methoxypyrimidin-4-yl)-5-methyl-2-(1-methyl-1H-imidazol-2-yl)pyrrolo[2,1-f][1,2,4]triazin-4-amine] | > 1000 | 1 to 24 | 1 to 24 | A* (A* = 1-25% activation)
3 | COc1cccc(-c2cn3nc(-c4nccn4C)nc(N[C@@H]4CC[C@H]4OC)c3c2-c2ccccc2)c1C (racemic) [Compound 272, rac 6-(3-Methoxy-2-methylphenyl)-N-((1R,2R)-2-methoxycyclobutyl)-2-(1-methyl-1H-imidazol-2-yl)-5-phenylpyrrolo[2,1-f][1,2,4]triazin-4-amine] | > 1000 | 75 to 100 | 75 to 100 | D (D = 76-100% inhibition)
4 | Cc1c(-c2ccn(C)n2)cn2nc(-c3nccn3C)nc(-n3[nH]c(N)cc3=O)c12 [Compound 261, 5-Amino-2-(5-methyl-2-(1-methyl-1H-imidazol-2-yl)-6-(1-methyl-1H-pyrazol-3-yl)pyrrolo[2,1-f][1,2,4]triazin-4-yl)-1,2-dihydro-3H-pyrazol-3-one] | > 1000 | 50 to 74 | 1 to 24 | B* (B* = 26-45% activation)
5 | Cc1c(-c2ccn(C)n2)cn2nc(-c3nccn3C)nc(Nc3cc(C(F)(F)F)[nH]n3)c12 [Compound 259, 5-Methyl-2-(1-methyl-1H-imidazol-2-yl)-6-(1-methyl-1H-pyrazol-3-yl)-N-(5-(trifluoromethyl)-1H-pyrazol-3-yl)pyrrolo[2,1-f][1,2,4]triazin-4-amine] | > 1000 | 50 to 74 | 0 | A (A = 1-25% inhibition)
6 | COc1cccc(-c2cn3nc(-c4nccn4C)nc(N[C@H]4C[C@@H](OC)C4)c3c2-c2ccccc2)c1Cl [Compound 31, 6-(2-Chloro-3-methoxyphenyl)-N-((1s,3s)-3-methoxycyclobutyl)-2-(1-methyl-1H-imidazol-2-yl)-5-phenylpyrrolo[2,1-f][1,2,4]triazin-4-amine] | > 1000 | 75 to 100 | 75 to 100 | D (D = 76-100% inhibition)
7 | Cc1c(-c2ccn(C(C)C)n2)cn2nc(-c3nccn3C)nc(Nc3nnc(C4CC4)o3)c12 [Compound 67, 5-Cyclopropyl-N-(6-(1-isopropyl-1H-pyrazol-3-yl)-5-methyl-2-(1-methyl-1H-imidazol-2-yl)pyrrolo[2,1-f][1,2,4]triazin-4-yl)-1,3,4-oxadiazol-2-amine] | > 1000 | 75 to 100 | 50 to 74 | 0 (0 = 0% inhibition)
8 | Cc1c(-c2ccn(C(C)C)n2)cn2nc(-c3nccn3C)nc(Nc3nc(C4CC4)no3)c12 [Compound 70, 3-Cyclopropyl-N-(6-(1-isopropyl-1H-pyrazol-3-yl)-5-methyl-2-(1-methyl-1H-imidazol-2-yl)pyrrolo[2,1-f][1,2,4]triazin-4-yl)-1,2,4-oxadiazol-5-amine] | > 1000 | 50 to 74 | 1 to 24 | 0 (0 = 0% inhibition)
9 | CCOc1cc(Nc2nc(-c3nccn3C)nn3cc(-c4ccn(C)n4)c(C)c23)n[nH]1 [Compound 260, N-(5-Ethoxy-1H-pyrazol-3-yl)-5-methyl-2-(1-methyl-1H-imidazol-2-yl)-6-(1-methyl-1H-pyrazol-3-yl)pyrrolo[2,1-f][1,2,4]triazin-4-amine] | > 1000 | 75 to 100 | 25 to 49 | A* (A* = 1-25% activation)

The next lines start with results.

Row | IC50 [2] [nM] | Structure (SMILES) | inhibition (IL6) [%] | inhibition at 10 µM (TNF-alpha) [%] | % inh of Smad2/3 phosphorylation in Panc-1 [1]
10 | < 150 | Cc1c(-c2ccn(C(C)C)n2)cn2nc(-c3nccn3C)nc(Nc3cnccn3)c12 [Compound 62, 6-(1-Isopropyl-1H-pyrazol-3-yl)-5-methyl-2-(1-methyl-1H-imidazol-2-yl)-N-(pyrazin-2-yl)pyrrolo[2,1-f][1,2,4]triazin-4-amine] | 25 to 49 | 1 to 24 | A* (A* = 1-25% activation)
11 | < 150 | COc1cncnc1Nc1nc(-c2nccn2C)nn2cc(-c3ccn(C(C)C)n3)c(C)c12 [Compound 73, 6-(1-Isopropyl-1H-pyrazol-3-yl)-N-(5-methoxypyrimidin-4-yl)-5-methyl-2-(1-methyl-1H-imidazol-2-yl)pyrrolo[2,1-f][1,2,4]triazin-4-amine] | 50 to 74 | 0 | B* (B* = 26-45% activation)
12 | < 150 | COc1cc(Nc2nc(-c3nccn3C)nn3cc(-c4cccnc4)c(C)c23)ncn1 [Compound 48, N-(6-Methoxypyrimidin-4-yl)-5-methyl-2-(1-methyl-1H-imidazol-2-yl)-6-(pyridin-3-yl)pyrrolo[2,1-f][1,2,4]triazin-4-amine] | 1 to 24 | 1 to 24 | B (B = 26-45% inhibition)
13 | < 150 | Cc1c(-c2ccn(C)n2)cn2nc(-c3nccn3C)nc(Nc3cc(-c4cccnc4)ccn3)c12 [Compound 250, N-([3,4′-Bipyridin]-2′-yl)-5-methyl-2-(1-methyl-1H-imidazol-2-yl)-6-(1-methyl-1H-pyrazol-3-yl)pyrrolo[2,1-f][1,2,4]triazin-4-amine] | 75 to 100 | 50 to 74 | C* (C* = 46-75% activation)
14 | 510 to 1000 | Cc1c(-c2ccn(C(C)C)n2)cn2nc(-c3nccn3C)nc(Nc3ccn(C)n3)c12 [Compound 61, 6-(1-Isopropyl-1H-pyrazol-3-yl)-5-methyl-2-(1-methyl-1H-imidazol-2-yl)-N-(1-methyl-1H-pyrazol-3-yl)pyrrolo[2,1-f][1,2,4]triazin-4-amine] | 1 to 24 | 1 to 24 | B (B = 26-45% inhibition)
15 | 150 to 500 | Cc1c(-c2ccn(C)n2)cn2nc(-c3nccn3C)nc(Nc3cc(C4CCC4)[nH]n3)c12 [Compound 257, N-(5-Cyclobutyl-1H-pyrazol-3-yl)-5-methyl-2-(1-methyl-1H-imidazol-2-yl)-6-(1-methyl-1H-pyrazol-3-yl)pyrrolo[2,1-f][1,2,4]triazin-4-amine] | 75 to 100 | 25 to 49 | D* (D* = 76-100% activation)
16 | 150 to 500 | COc1cccc(-c2cn3nc(-c4nccn4C)nc(N[C@H]4C[C@H](OC)C4)c3c2-c2ccccc2)c1Cl [Compound 32, 6-(2-Chloro-3-methoxyphenyl)-N-((1r,3r)-3-methoxycyclobutyl)-2-(1-methyl-1H-imidazol-2-yl)-5-phenylpyrrolo[2,1-f][1,2,4]triazin-4-amine] | 75 to 100 | 75 to 100 | D (D = 76-100% inhibition)
